Converted amounts (≈) assume the structure as drawn. Counter-ions that a name gives are not always drawn. Like-named read-outs stand apart in the source and are kept apart here.
Tests used:
[1] = test system: KB3 (epitheloid lung cancer) cell lines; test: Cell growth inhibition (cytotoxicity), MTS assay, KB3 cell line; type: cell-based; details: for cytotoxic activity in words: structure-cytotoxicity discussion
Method: Cell growth inhibition was determined by the MTS assay; the number of viable cells were proportional to the extent of formazan production in the presence or absence of drugs. […]

[2] = test system: bloodstream forms of T. brucei and T. congolense; test: Trypanocidal activity in vitro, Alamar Blue assay; type: cell-based, Trypanosoma brucei and T. congolense
Text: Trypanosoma brucei and T. congolense are the causative agents of sleeping sickness in humans and nagana in cattle, respectively. The protozoan parasites live extracellularlyin blood and tissue fluids of mammals and are transmitted by the bite of infected tsetse flies (Glossina spp.). Here the trypanocidal activity against bloodstream forms of T. brucei and T. congolense of bis-8-hydroxy quinoline N-substituted benzylamines derivatives was investigated in vitro, according to methods described in. Steverding et al. (2006) Kinetoplastid Biology and Disease, 5(3): 1-5; Hongmance et al., (2007) Antimicrob. Agents Chemother. 51:1105-1106; and Zhao et al., (2005) Bio-org. Med. Chem.; 13: 3921-3926. Cells were seeded into 96-well tissue culture plates in 200 μl medium containing various concentrations of analogues dissolved in H2O. The controls contained the respective solvent alone. […] After 24 h (trypanosomes) or 43 h (HL-60) incubation, 20 μl of the colorimetric viability indicator Alamar Blue® was added to each well. The cells were incubated for a further 24 h (trypanosomes) or 5 h (HL-60) so that the total incubation time was 48 h. Then, the plates were read on a Dynatech MR5000ELISA reader (Denkendorf, Germany),using a test wavelength of 550 nm and a reference wave length of 630 nm. Each test was set up in duplicate and repeated three times. For comparison, the general cytotoxicity of the compounds was assayed with human myeloid leukaemia HL-60 cells. The anti-trypanosomal activities and the general cytotoxicities of the new analogues were evaluated using the Alamar Blue® assay.

[3] = test system: A549 (human lung adenocarcinoma epithelial); test: Growth inhibition, MTT colorimetric assay, A549; type: cell-based; details: Homo sapiens, A549, 72 h; carcinoma; 3 days with drug; means of six values; unit inferred; read-out: IC50 A549
Method: (§1) A549 (human lung adenocarcinoma epithelial), BxPC3 (pancreatic cancer), LoVo (colon cancer), MCF-7 (epithelial breast cancer), PC3 (human prostate cancer), Hs683 (human glioma), T98G (glioblastoma), U373 (human glioblastoma-astrocytoma), U138 MG (human glioma), epithelial-like), SKMEL28 (human melanoma), B16-F10 (mouse melanoma) and RhTP (rhabdomyosarcoma) cell lines were cultured in presence of the drugs for 3 days. The cytotoxic activity is expressed as (IC50). Inhibition of cell proliferation measured by the MTT colorimetric assay. The values reported in Table 4 are means of six distinct values.

[4] = test system: BxPC3 (pancreatic cancer); test: Growth inhibition, MTT colorimetric assay, BxPC3; type: cell-based, human; details: Homo sapiens, BXPC-3, 72 h; carcinoma; 3 days with drug; means of six values; unit inferred; read-out: IC50 BxPC3
Method: Cells are cultured at 37° C. in Falcon culture dishes, incubated at 5% CO2 in a suitable culture medium available from Invitrogen Corp. Anti-proliferative activity is determined by an MTT assay (bromide of (3-[4,5-dimethylthiazolium-yl]diphenyltetrazolium)). According to one standard protocol, absorbance is measured at 570 nm (see Dumont et al. (2007) Neoplasia 9: 766-776.
as §1

LoVo (colon cancer) = test: Growth inhibition, MTT colorimetric assay, LoVo; type: cell-based; details: Homo sapiens, LoVo, 72 h; carcinoma; 3 days with drug; means of six values; unit inferred; read-out: IC50 LoVo
Method: as §1

[5] = test system: MCF-7 (epithelial breast cancer); test: Growth inhibition, MTT colorimetric assay, MCF7; type: cell-based; details: Homo sapiens, MCF7, 72 h; carcinoma; 3 days with drug; means of six values; unit inferred; read-out: IC50 MCF7
Method: as §1

[6] = test system: PC3 (human prostate cancer); test: Growth inhibition, MTT colorimetric assay, PC3; type: cell-based; details: Homo sapiens, 72 h; carcinoma; 3 days with drug; means of six values; unit inferred; read-out: IC50 PC3
Method: as §1, with “Compounds that met the criteria for activity on KB3 cells were further tested for drug growth inhibitory activity in 5 carcinoma, 6 glioma and 3 melanoma cell lines, shown in Table 4. A549” for “A549”, “values. The standard errors are <5% as compared to the mean values.” for “values.”

Hs683 (human glioma) = test: Growth inhibition, MTT colorimetric assay, HS683; type: cell-based; details: Homo sapiens, Hs 683, 72 h; glioma; 3 days with drug; means of six values; unit inferred; read-out: IC50 HS683
Method: as §1

T98G (glioblastoma) = test: cells; type: cell-based; details: Homo sapiens, T98G, 72 h; glioma; 3 days with drug; means of six values; unit inferred; read-out: IC50 T98G
Method: as §1

[7] = test system: U373 (human glioblastoma-astrocytoma); test: Growth inhibition, MTT colorimetric assay, U373; type: cell-based; details: Homo sapiens, U373 MG, 72 h; glioma; 3 days with drug; means of six values; unit inferred; read-out: IC50 U373
Method: as §1, with “Compounds that met the criteria for activity on KB3 cells were further tested for drug growth inhibitory activity in 5 carcinoma, 6 glioma and 3 melanoma cell lines, shown in Table 4. A549” for “A549”, “values. The standard errors are <5% as compared to the mean values.” for “values.”

U138 MG (human glioma) = test: Growth inhibition, MTT colorimetric assay, U138; type: cell-based; details: Homo sapiens, U138-MG, 72 h; glioma; 3 days with drug; means of six values; unit inferred; read-out: IC50 U138
Method: as §1, with “Compounds that met the criteria for activity on KB3 cells were further tested for drug growth inhibitory activity in 5 carcinoma, 6 glioma and 3 melanoma cell lines, shown in Table 4. A549” for “A549”, “values. The standard errors are <5% as compared to the mean values.” for “values.”

GL19 = test: Growth inhibition, MTT colorimetric assay, GL19; type: cell-based; details: GL19, 72 h; 3 days with drug; means of six values; unit inferred; read-out: IC50 GL19
Method: as §1, with “Compounds that met the criteria for activity on KB3 cells were further tested for drug growth inhibitory activity in 5 carcinoma, 6 glioma and 3 melanoma cell lines, shown in Table 4. A549” for “A549”, “values. The standard errors are <5% as compared to the mean values.” for “values.”

RhTP (rhabdomyosarcoma) = test: Growth inhibition, MTT colorimetric assay, RhTp; type: cell-based; details: 72 h; 3 days with drug; means of six values; unit inferred; read-out: IC50 RhTp
Method: as §1, with “Compounds that met the criteria for activity on KB3 cells were further tested for drug growth inhibitory activity in 5 carcinoma, 6 glioma and 3 melanoma cell lines, shown in Table 4. A549” for “A549”, “values. The standard errors are <5% as compared to the mean values.” for “values.”

KaKa = test: Growth inhibition, MTT colorimetric assay, KaKa; type: cell-based; details: 72 h; 3 days with drug; means of six values; unit inferred; read-out: IC50 KaKa
Method: as §1, with “Compounds that met the criteria for activity on KB3 cells were further tested for drug growth inhibitory activity in 5 carcinoma, 6 glioma and 3 melanoma cell lines, shown in Table 4. A549” for “A549”, “values. The standard errors are <5% as compared to the mean values.” for “values.”

Host = test: Growth inhibition, MTT colorimetric assay, Host; type: cell-based; details: 72 h; 3 days with drug; means of six values; unit inferred; read-out: IC50 Host
Method: as §1, with “Compounds that met the criteria for activity on KB3 cells were further tested for drug growth inhibitory activity in 5 carcinoma, 6 glioma and 3 melanoma cell lines, shown in Table 4. A549” for “A549”, “values. The standard errors are <5% as compared to the mean values.” for “values.”

SKMEL28 (human melanoma) = test: Growth inhibition, MTT colorimetric assay, SKMEL-28; type: cell-based; details: Homo sapiens, SK-MEL-28, 72 h; melanoma; 3 days with drug; means of six values; unit inferred; read-out: IC50 SKMEL-28
Method: as §1, with “Compounds that met the criteria for activity on KB3 cells were further tested for drug growth inhibitory activity in 5 carcinoma, 6 glioma and 3 melanoma cell lines, shown in Table 4. A549” for “A549”, “values. The standard errors are <5% as compared to the mean values.” for “values.”

B16-F10 (mouse melanoma) = test: Growth inhibition, MTT colorimetric assay, B16F10; type: cell-based; details: Mus musculus, B16-F10, 72 h; melanoma; 3 days with drug; means of six values; unit inferred; read-out: IC50 B16F10
Method: as §1, with “Compounds that met the criteria for activity on KB3 cells were further tested for drug growth inhibitory activity in 5 carcinoma, 6 glioma and 3 melanoma cell lines, shown in Table 4. A549” for “A549”, “values. The standard errors are <5% as compared to the mean values.” for “values.”

[8] = KB3, Table 3B, MTS assay, triplicate, read-out: KB3 IC50
[9] = Table 3A, MTS assay, triplicate, read-out: KB3 IC50
[10] = KB3, Table 3A, MTS assay, triplicate, read-out: KB3 IC50
[11] = 50% growth inhibition, 48 h total incubation, read-out: GI50
[12] = lowest concentration at which all cells were killed, 48 h total incubation, read-out: MIC

## Oc1ccc(CNCc2ccc(C(F)(F)F)cc2)c2cccnc12 [BPM19,191, 5-((4-(trifluoromethyl)benzylamino)methyl)quinolin-8-ol]
[1]; [8]
  IC50: 10000 nM

## Cc1ccc(CNCc2ccc(O)c3ncccc23)cc1 [BPM19,167, 5-((4-methylbenzylamino)methyl)quinolin-8-ol dihydrochloride]
[2]; 48 h
  GI50: 14800 ± 2590 nM
  MIC: 100 µM

## Oc1ccc(CNCc2cccc(C(F)(F)F)c2)c2cccnc12 [BPM19,114, 5-((3-(trifluoromethyl)benzylamino)methyl)quinolin-8-ol]
[1]; [8]
  IC50: 200 nM
[1]; KB3 cell line
  cytotoxic activity in words: significant cytotoxic activity

## 5,5′-(2-(pyrrolidin-1-yl)ethylazanediyl)bis(methylene)diquinolin-8-ol) [BPM19,214]
[1]; [9]
  IC50: 1000 nM

## CC(=O)O[C@@]12CO[C@@H]1C[C@H](O)[C@@]1(C)C(=O)[C@H](O)C3=C(C)[C@@H](OC(=O)[C@H](O)[C@@H](NC(=O)OC(C)(C)C)c4ccccc4)C[C@@](O)([C@@H](OC(=O)c4ccccc4)[C@H]21)C3(C)C [docetaxel, reference compound]
[1]; compared with KB3 values, read-out: IC50 value of reference drug
  IC50: 0.1 nM

## Oc1ccc(CN(Cc2ccc(OC(F)(F)F)cc2)Cc2ccc(O)c3ncccc23)c2cccnc12 [BPM19,205, 5,5′-(4-(trifluoromethoxy)benzylazanediyl)bis(methylene)diquinolin-8-ol]
[1]; [10]
  IC50: 100 to 1000 nM
[2]; [11]
  GI50: 320 ± 20 nM
[2]; [12]
  MIC: 1 µM (≈ 0.505 µg/mL)

## Cc1ccc2c(CN(Cc3ccc(C(F)(F)F)cc3)Cc3ccc(O)c4nc(C)ccc34)ccc(O)c2n1 [BPM19,876, 5,5′-(4-trifluoromethylbenzylazanediyl)bis(methylene)bis(2-methylquinolin-8-ol)]
[2]; [11]
  GI50: 3710 ± 240 nM
[2]; [12]
  MIC: 100 µM (≈ 51.8 µg/mL)

## 5,5′-(2-(pyridin-2-yl)ethylazanediyl)bis(methylene)diquinolin-8-ol) [BPM19,193]
[1]; [9]
  IC50: > 10000 nM

## Oc1ccc(N(Cc2cccc3ccccc23)c2ccc(O)c3ncccc23)c2cccnc12 [BPM19,702, 5,5′-(naphthalen-1-ylmethylazanediyl)diquinolin-8-ol]
[2]; [11]
  GI50: 290 nM
[2]; [12]
  MIC: 1 µM (≈ 0.444 µg/mL)

## Cc1ccc(C(=O)NCc2ccc(O)c3ncccc23)cc1 [BPM18,203, N-((8-hydroxyquinolin-5-yl)methyl)-4-methylbenzamide]
[1]; [8]
  IC50: 1000 nM
[1]; KB3 cell line
  CC50: 1000 nM
  cytotoxic activity in words: inactive or only weakly active

## Oc1ccc(CN(Cc2ccccc2)Cc2ccccc2)c2cccnc12 [BPM19,230, 5-((dibenzylamino)methyl)quinolin-8-ol]
[1]; [8]
  IC50: 1000 nM

## O=C(O)C1CCC(CN(Cc2ccc(O)c3ncccc23)Cc2ccc(O)c3ncccc23)CC1 (stereo not shown) [BPM19,225, 4-((bis((8-hydroxyquinolin-5-yl)methyl)amino)-methyl)cyclohexanecarboxylic acid]
[3]
  IC50: 661 nM
[4]
  IC50: 4340 nM
LoVo (colon cancer)
  IC50: 422 nM
[5]
  IC50: 9460 nM
[6]
  IC50: 993 nM
Hs683 (human glioma)
  IC50: 2860 nM
T98G (glioblastoma)
  IC50: 9760 nM
[7]
  IC50: 3730 nM
U138 MG (human glioma)
  IC50: > 10000 nM
GL19
  IC50: 7600 nM
RhTP (rhabdomyosarcoma)
  IC50: > 10000 nM
KaKa
  IC50: > 10000 nM
Host
  IC50: > 10000 nM
SKMEL28 (human melanoma)
  IC50: > 10000 nM
B16-F10 (mouse melanoma)
  IC50: > 10000 nM

## Oc1ccc(CN(Cc2ccc(O)c3ncccc23)CC2CCCO2)c2cccnc12 (stereo not shown) [BPM19,197, 5,5′-((tetrahydrofuran-2-yl)methylazanediyl)bis(methylene)diquinolin-8-ol]
[1]; [10]
  IC50: 10000 nM
[2]; [11]
  GI50: 2990 ± 50 nM
[2]; [12]
  MIC: 10 µM (≈ 4.15 µg/mL)

## Cn1cccc1CN(Cc1ccc(O)c2ncccc12)Cc1ccc(O)c2ncccc12 [BPM19,216, 5,5′-((1-methyl-1H-pyrrol-2-yl)methylazanediyl)bis(methylene)diquinolin-8-ol]
[2]; [11]
  GI50: 320 ± 10 nM
[2]; [12]
  MIC: 1 µM (≈ 0.425 µg/mL)

## Oc1ccc(CNCc2ccccc2)c2cccnc12 [BPM18,726, 5-((benzylamino)methyl)quinolin-8-ol dihydrochloride]
[1]; [8]
  IC50: > 1000 nM
